Reference: patent US12534465B2, “5H-pyrrolo[3,2-d]pyrimidine-2,4-diamino compounds and antibody conjugates thereof” (SUTRO BIOPHARMA, INC., priority 2019, dated 2026)

Assays:
[1] = Body weight / tolerability in MC38-hFolRα tumor-bearing mice; assay type: in vivo, mouse
Protocol: Female C57BL/6 mice at 9-10 weeks of age were anesthetized with isoflurane and implanted subcutaneously into the right hind flank with 1×10^6 MC38-hFolRα (murine colon adenocarcinoma cells engineered to express hFolRα). Randomization and start of treatment was initiated when the average tumor size was approximately 150 mm^3 (designated as Day 0 post-treatment). Animals received intratumoral (IT) injections of Compound 2 on Day 0 and Day 4 (q4d×2). Compound 2 was dissolved in DMSO and dosing solutions were formulated in PBS. Body weight and tumor size were monitored 3×/week. The primary study endpoint was reached when the mean tumor size of the vehicle control group was >1,200 mm^3.

human PBMCs [2] = assay: Immune cell activation (CD86 expression, flow cytometry); assay type: cell-based; conditions: 48 hr, 10 μg/ml LPS-RS
Description: This example evaluates the ability of Compound 10 to stimulate the activation of different immune cells populations (monocyte, B cell, and DCs), in human PBMCs (Peripheral blood mononuclear cells), cyno PBMCs and mouse splenocytes.
Peripheral blood mononuclear cells (PBMCs) were isolated from fresh collected blood from two healthy human donors and two cynomolgus monkey donors using Leukosep tube and Nycoprep 1.077 buffer according to the manufacture's recommendation. Mouse splenocytes were isolated from C57/BL6 mouse spleens by macerating and straining over a 70 μm cell strainer. Isolated PBMCs or splenocytes were then frozen down using frozen medium. On the day of the assay, PBMCs or splenocytes were thawed and cultured in PBMC culture medium (RPMI supplemented with 10% heat-inactivated fetal bovine serum from Hyclone, 1% Penicillin/Streptomycin and 2 mmol/L-glutamax). 300 k of PBMC or splenocytes in 50 μl of culture medium were seeded in 96-well cell culture plates. 50 μl of the test articles (formulated at 2× of starting concentration) were then added into the well. The cell mixtures were co-cultured in the presence of test articles and 10 μg/ml LPS-RS for 48 hr. The cells were collected by Accutase and then stained with antibodies to different cell population markers and activation markers. Cells were washed, fixed with 2% PFA overnight, and read on the Attune N×T cytometer (Thermo Fisher). Monocyte activation was indicated as increase of CD86 expression on CD14+ cells. B cell activation was indicated as increase of CD86 expression on CD14−/Lin+/HLA-DR+ cells. Dendritic cells (DC) activation was indicated as increase of CD86 expression on CD14−/Lin−/HLA-DR+/CD123+ cells.

mouse splenocytes = assay: Cytokine release (ELISA); assay type: cell-based; conditions: 48 hr, 10 μg/mL LPS-RS
Protocol: (§1) This example evaluates the ability of Compound 10 to induce cytokine release in human PBMCs, cyno PBMCs and mouse splenocytes. Compound 1 and resiquimod:
(§2) Human and cyno PBMCs, mouse splenocytes were isolated as described in previous example. The day of the assay, 300 k of PBMC or splenocytes in 50 μL of culture medium were seeded in 96-well cell culture plates. 50 μl of the test articles (formulated at 2× of starting concentration) were then added into the well. The cell mixtures were co-cultured in the presence of test articles and 10 μg/mL LPS-RS for 24 hr (human PBMCs) or 48 hr (cyno PBMCs and mouse splenocytes). Cytokines released were measured by ELISA using cell culture medium.

human PBMCs [3] = assay: Cytokine release (ELISA); assay type: cell-based; conditions: 24 hr, 10 μg/mL LPS-RS
Protocol: as §1, §2

cyno PBMCs = assay: Cytokine release (ELISA); assay type: cell-based, cynomolgus monkey; conditions: 48 hr, 10 μg/mL LPS-RS
Protocol: as §1, §2

Row | Compound | tolerability ([1]; 0.1-2 mg/kg intratumoral, Day 0 and 4) | dose-related minimal body weight loss ([1]; FIG. 7A legend, mice bearing MC38-hFolRα tumors) | body weight loss ([1]; doses >0.5 mg/kg intratumoral, Day 0 and 4, recovery by approximately Day 7, FIG. 7A) | activation of monocytes (human PBMCs [2]; FIG. 1A) | activation of B cells (human PBMCs [2]; FIG. 1B) | activation of cDCs (human PBMCs [2]; FIG. 1C) | activation of pDCs (human PBMCs [2]; FIG. 1D) | IL-6 release (mouse splenocytes; FIG. 6A) | MCP-1 release (mouse splenocytes; FIG. 6B) | TNFa release (mouse splenocytes; FIG. 6C) | IP-10 release (mouse splenocytes; FIG. 6D) | IL-6 release (human PBMCs [3]; FIG. 4A) | MCP-1 release (human PBMCs [3]; FIG. 4B) | IL1Ra release (human PBMCs [3]; FIG. 4C) | IL-6 release (cyno PBMCs; FIG. 5A) | MCP-1 release (cyno PBMCs; FIG. 5B)
1 | CCCCCNc1nc(N)nc2ccn(Cc3ccc(CN4CC(NC)C4)cc3OC)c12 [Compound 2, 5-(2-methoxy-4-((3-(methylamino)azetidin-1-yl)methyl)benzyl)-N4-pentyl-5H-pyrrolo[3,2-d]pyrimidine-2,4-diamine] | well tolerated | < 10 % of predose | approximately 5% |  |  |  |  |  |  |  |  |  |  |  |  | 
2 | CCCCCNc1nc(N)nc2ccn(Cc3ccc(CN4CC5(CNCCO5)C4)cc3OC)c12 [Compound 10, 5-[[2-methoxy-4-(5-oxa-2,8-diazaspiro[3.5]nonan-2-ylmethyl)phenyl]methyl]-N4-pentyl-pyrrolo[3,2-d]pyrimidine-2,4-diamine] |  |  |  | very potent | very potent | very potent | very potent | strong | strong | strong | strong | strong | strong | strong | strong | strong
